The text below walks through data of patent US20250177533A1, “PHOTODYNAMIC THERAPY AND DIAGNOSIS” (RMW CHO Group Limited, priority 2021, published 2025).

Data set [1] deals with Human ovarian cancer cell line SKOV3. The data set is described as follows: Phototoxicity in SKOV3 cells (660 nm laser or LED, AlamarBlue viability). It counts as cell-based. The settings on record: SKOV3, 24 h uptake, 660 nm laser 50 mW/cm^2 for 5 mins (15 J/cm^2), viability 24 h later, read-out: Phototoxicity μM (IC90). The text has this: All data are shown as mean±SD (where appropriate).
Media was then replaced with fresh media containing AlamarBlue, and % viable cells remaining assessed as above. […] All measurements were made in quadruplicate.

The test system is the same in data set [2]. The data set is described as follows: Inherent cytotoxicity (dark toxicity) in SKOV3 cells (AlamarBlue viability). The settings on record: SKOV3, 24 h incubation, no light activation.
Experimental: (§1) Serial dilutions were prepared in cell culture media (Dulbecco's Modified Eagle Medium/Nutrient Mixture F-12 (DMEM/F-12)) supplemented with 10% v/v Fetal Bovine Serum, 100 U/mL penicillin, 100 μg/mL streptomycin and the same excipient solution at a constant 1:55 dilution.
(§2) Human ovarian cancer cell line SKOV3 (ATCC #HTB-77) was maintained in Dulbecco's Modified Eagle Medium/Nutrient Mixture F-12 (DMEM/F-12), supplemented with 10% v/v Fetal Bovine Serum, 100 U/mL penicillin and 100 μg/mL streptomycin. Monolayer cultures were grown in a humidified incubator at 37° C. with 5% CO2. Once cells had reached ˜80% confluence, spent media was replaced with media containing photosensitizer at the required concentration and cells were incubated for the desired period of time to allow photosensitizer uptake.
(§3) Spectral absorbance and viability measurements were normalized in the range 0-100%, with a minimum of 0 and a maximum value determined from the dataset. Dose response was determined using a sigmoidal four-point non-linear regression with variable slope, and IC10 or IC90 calculated for each compound. All data are shown as mean±SD (where appropriate).
(§4) On reaching ˜60% confluence, media was aspirated and replaced with fresh media containing the relevant phyllochlorin analogue from 0-100 μM in DMSO.
(§5) Untreated cells were used as a control. […] All measurements were made in quadruplicate.
(§6) The phototoxicity and inherent cytotoxicity (i.e. “dark toxicity”) of phyllochlorin analogues were assessed as previously using SKOV3 ovarian cancer cells. For comparative purposes, phyllochlorin analogues were compared against chlorin e4 disodium and Talaporfin sodium, a clinically approved photosensitizer used in the photodynamic treatment of lung cancers.
Data set [3] has as its system SKOV3 ovarian cancer cells. The data set is described as follows: Photosensitizer uptake into SKOV3 cancer cells (absorbance of cell lysates at 405 nm). The settings on record: SKOV3, 5 μM.
Experimental: (§7) SKOV3 cells were seeded in 96-well black wall plates (Greiner #655090) at a cell density of 5000 cells in 100 μl culture medium per well. […] Cells were incubated for up to 18 hours. At time periods of 10 min, 20 min, 30 min, 60 min, 2 hrs, 4 hrs and 18 hrs, media was removed and the cells lysed in 100 μl of lysis buffer (PBS+1% SDS+1% PVP+Benzonase Nuclease 500 units/mL). Each sample was snap-frozen on dry ice until use.
(§8) Eight point standard curves using compound 1 or chlorin e4 disodium were constructed in the range 0-10 μM using serial dilutions in lysis buffer. Cell lysates (100 μl) were thawed, centrifuged at room temperature (21,000 g, 10 mins) and the supernatants transferred to fresh tubes. 100 μl of each supernatant was added neat to 96-well microplates and absorbance measured at 405 nm using a Cytation 3 multimode plate reader. All wells were measured against blank wells containing buffer alone, and a background value measured using untreated cells was subtracted from all samples. The concentration of each chlorin species was determined against the appropriate standard curve in each case.
(§9) Chlorin e4 disodium (which enters cells via a passive diffusion process) was included as a comparator, and untreated cells were used as a control. Cells were harvested at time periods from 10 mins to 18 hours post addition of photosensitizers, cells were lysed and the supernatants measured for uptake of photosensitizers against an appropriate standard curve.
The subject of data set [4] is E coli DH5α cells. The experiment in a line: Photosensitizer uptake into bacterial cells (absorbance spectra of lysates). It counts as cell-based. The settings on record: 50 μM, incubated overnight. How it is done: E coli DH5α cells were inoculated into LB media and incubated overnight (shaking at 37° C.) in the presence of 50 μM compound 1 or chlorin e4 disodium. Untreated cells acted as the control. The following day cells were harvested by centrifugation (5000 g, 10 mins, room temperature) and lysed by addition of PBS+1% SDS (w/v)+1% PVP-17 (w/v). Insoluble material was pelleted by centrifugation at 21,000 g (10 mins, bench top centrifuge) and the supernatant transferred to a fresh tube. A 100 μl aliquot was added to clear 96-well microtitre plates and absorbance spectra measured between 600-700 nm (Cytation 3 multimode plate reader). The optical density (OD) was plotted against wavelength in each case to determine uptake of photosensitizer into cells.

The nature of data set [5]: Determination of solubility of phyllochlorin analogues (absorbance maxima as surrogate measure). In kind it is physicochemical. How it is done:
Absorbance maxima were used as a surrogate measure of solubility. The relevant phyllochlorin analogue was diluted to 50 μM in PBS (phosphate buffered saline) solutions containing decreasing amounts of DMSO from 100% to 0%.
Where required, polyvinylpyrrolidone (K30) was added to a final concentration of 1% w/v. Absorbance was measured using a Cytation 3 Multimode Plate Reader (Biotek) in spectral scanning mode, with spectra captured between 500-800 nm in 2 nm increments. Equivalent blank solutions were also measured and subtracted accordingly. Each spectrum was normalized to have a minimum signal of 0, and a maximum signal in pure DMSO solution (the most soluble state) of 100%.
The solubility of compound 1 was assessed in solutions containing DMSO as an organic solvent. Compound 1 (50 μM final concentration) was resuspended in 100% DMSO to fully dissolve compound 1, in the presence or absence of 1% PVP (w/v). With concentrations of compound 1 maintained at 50 μM the % DMSO was decreased in a stepwise manner from 100% to 0%. All solutions were mixed by vortexing, then centrifuged for 2 mins to pellet any insoluble material. A 150 μl aliquot was transferred to individual wells of a 96-well clear microplate, and absorbance spectra collected between 500-800 nm in 2 nm increments. Equivalent solutions containing decreasing % DMSO were used to control for background.

Data set [6] has as its system Human ovarian cancer cell line SKOV3. The settings on record: 24 h.
Experimental: as §1, §2, §3, §4, §5, §6
The test system of data set [7] is SKOV3 ovarian cancer cells. The settings on record: human, 5 μM.
Experimental: as §7, §8, §9

Where two headings read alike, the source gives them in different places.

In general, IC90 refers to the point of the concentration-response curve where the effect stands at 90%. On to `C=Cc1c(C)c2cc3nc(c(C)c4[nH]c(cc5nc(cc1[nH]2)C(C)=C5CC)c(C)c4C(=O)O)[C@@H](CCC(=O)O)[C@@H]3C` [Chlorin e4 disodium, reference compound], for which the IC90 in data set [1] came to 21.3 µM. Further, the “Dark toxicity μM (IC10)” value in data set [2] stood at 40.23 µM. Moreover, in data set [3], the detectability in cells result is on record as “undetectable until after one hour of incubation” and the “time of reaching maximum accumulation” value amounted to 18 h. In addition, the “detection in bacterial lysates” value in data set [4] is on record as “detected marginally above background”.

For the compound `CCC1=C(C)c2cc3[nH]c(cc4nc(c(C)c5cc(C)c(cc1n2)[nH]5)[C@@H](CCC(=O)OC)[C@@H]4C)c(C)c3C(C)OCCCS[C@@H]1O[C@H](CO)[C@@H](O)[C@H](O)[C@H]1O` (stereo partly drawn) [Compound 1, methyl 3-((7S,8S)-18-ethyl-2,5,8,12,17-pentamethyl-13-(1-(3-(((2S,3R,4S,5S,6R)-3,4,5-trihydroxy-6-(hydroxymethyl)tetrahydro-2H-pyran-2-yl)thio)propoxy)ethyl)-7H,8H-porphyrin-7-yl) propanoate], the apparent solubility in data set [5] (50 μM, DMSO concentrations below 40%) is on record as about 45%. Besides, in data set [5] (50 μM, concentrations above 70% DMSO), the solubility entry is on record as “completely soluble”. For the same compound, the “solubility in aqueous solution” value in data set [5] (50 μM, no DMSO, addition of PVP 1%) is ~75 % of maximal. In addition, the absorbance maxima in data set [5] (in the presence of 1% PVP (w/v)) was determined as 650±2 nm. For the same compound, the IC90 in data set [1] (Homo sapiens, SK-OV-3, light or radiation study) came to 0.06 µM. Further, the “Dark toxicity μM (IC10)” value in data set [6] turned out to be 13.500 µM. In addition, in data set [7], the “observed in cells (time of incubation)” value is at most 10 min, the rate of uptake result is recorded as “substantially faster than that of chlorin e4 disodium” and the “time the rate of uptake was maintained after addition of photosensitizer” value was in the range of 2 to 4 h. Moreover, the “detection in bacterial lysates” value in data set [4] was “clearly detectible”.
